Source: paper PMC10825133, “Repurposing proteasome inhibitors for improved treatment of triple-negative breast cancer” (Cell Death Discovery, 2024)
Read-outs that look alike come from different tables or passages of the source.

Columns and labels:
MDA-MB-436 cells = assay: Resazurin-based cell viability assay, monotherapy drug screen; set-up: species or system human; AUC: scale not given here; conditions: for AUC: area under the dose response curve, 24 h; for GRmax: drug efficacy at highest tested dose (<0 cytotoxic, 0 cytostatic, >0 partial growth inhibition)
Summary of the method: (§1)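 Cells were seeded at the highest density (tested 1000-16000 cells/well) giving linear growth between days 1 and 3, keeping them in exponential phase over the ~52 h experiment. Viability was read after 4 h at 37 °C with 0.2 mg/ml resazurin added at 10% of medium volume; ex 560/em 615 nm.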

MDA-MB-453 cells = assay: as above; set-up: species or system human; AUC: scale not given here; conditions: for AUC: area under the dose response curve, 24 h
Summary of the method: as §1

BT-549 cells = assay: as above; set-up: species or system human; AUC: scale not given here; conditions: for AUC: area under the dose response curve, 24 h; for GRmax: drug efficacy at highest tested dose (<0 cytotoxic, 0 cytostatic, >0 partial growth inhibition)
Summary of the method: as §1

MDA-MB-468 cells = assay: as above; set-up: species or system human; AUC: scale not given here; conditions: for AUC: area under the dose response curve, 24 h
Summary of the method: as §1

HCC70 cells = assay: as above; set-up: species or system human; AUC: scale not given here; conditions: for AUC: area under the dose response curve, 24 h; for GRmax: drug efficacy at highest tested dose (<0 cytotoxic, 0 cytostatic, >0 partial growth inhibition)
Summary of the method: as §1

MCF-7 cells = assay: as above; set-up: species or system human; AUC: scale not given here; conditions: for AUC: area under the dose response curve, 24 h; for GRmax: drug efficacy at highest tested dose (<0 cytotoxic, 0 cytostatic, >0 partial growth inhibition)
Summary of the method: as §1

MCF-10A cells = assay: as above; set-up: species or system human; AUC: scale not given here; conditions: for AUC: area under the dose response curve
Summary of the method: as §1

HCC38 cells = assay: as above; set-up: species or system human; AUC: scale not given here; conditions: for AUC: area under the dose response curve, 24 h; for GRmax: drug efficacy at highest tested dose (<0 cytotoxic, 0 cytostatic, >0 partial growth inhibition)
Summary of the method: as §1

HCC1806 cells = assay: as above; set-up: species or system human; AUC: scale not given here; conditions: for AUC: area under the dose response curve, 24 h; for GRmax: drug efficacy at highest tested dose (<0 cytotoxic, 0 cytostatic, >0 partial growth inhibition)
Summary of the method: as §1

[1] = tested on: eight TNBC cell lines (BT-549, CAL-148, HCC1806, HCC38, HCC70, MDA-MB-436, MDA-MB-453, MDA-MB-468); assay: Monotherapy drug screen, mean across the TNBC cell lines; conditions: for area under the dose response curve (AUC), mean ± SD / cytotoxic effect at the highest dose: TNBC cell lines; for cytotoxic effect at the highest dose: by GRmax
Summary of the method: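 Cells seeded at 4.0 × 10^3–7.5 × 10^3/well, grown 24 h, then drug-treated 24 h with matched solvent-vehicle controls per concentration; resazurin absorbance read-out, viability normalised to vehicle after background subtraction, t = 0 untreated cells for GR. AUC, IC50, GR50, GRmax via GRmetrics; combinations predicted by IDACombo, synergy scored with SynergyFinder.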

[NH2][Pt]1([NH2])[O]CC(=O)[O]1 [Nedaplatin]
IC50 (MDA-MB-436 cells; MDA-MB-436, 24 h drug treatment, read-out: IC50): 0.23 µM
AUC (MDA-MB-436 cells; MDA-MB-436): 0.76
GRmax (MDA-MB-436 cells; MDA-MB-436): 0.22
IC50 (MDA-MB-436 cells; MDA-MB-436, growth rate inhibition concentration at GR(c) = 0.5, 24 h, read-out: GR50 (the source's name)): 0.13 µM
AUC (MDA-MB-453 cells; MDA-MB-453): 0.86
GRmax (MDA-MB-453 cells; MDA-MB-453, drug efficacy at highest tested dose (<0 cytotoxic, 0 cytostatic, >0 partial growth inhibition)): 0.34
IC50 (MDA-MB-453 cells; MDA-MB-453, growth rate inhibition concentration at GR(c) = 0.5, 24 h, read-out: GR50 (the source's name)): 0.41 µM
IC50 (BT-549 cells; BT-549, 24 h drug treatment, read-out: IC50): 0.15 µM
AUC (BT-549 cells; BT-549): 0.66
GRmax (BT-549 cells; BT-549): −0.02
IC50 (BT-549 cells; BT-549, growth rate inhibition concentration at GR(c) = 0.5, 24 h, read-out: GR50 (the source's name)): 0.081 µM
IC50 (MDA-MB-468 cells; MDA-MB-468, 24 h drug treatment, read-out: IC50): 0.067 µM
AUC (MDA-MB-468 cells; MDA-MB-468): 0.61
GRmax (MDA-MB-468 cells; MDA-MB-468, drug efficacy at highest tested dose (<0 cytotoxic, 0 cytostatic, >0 partial growth inhibition)): −0.38
IC50 (HCC70 cells; HCC70, 24 h drug treatment, read-out: IC50): 0.046 µM
AUC (HCC70 cells; HCC70): 0.50
GRmax (HCC70 cells; HCC70): −0.83
IC50 (HCC70 cells; HCC70, growth rate inhibition concentration at GR(c) = 0.5, 24 h, read-out: GR50 (the source's name)): 0.3 µM
AUC (MCF-7 cells; MCF-7): 0.82
GRmax (MCF-7 cells; MCF-7): −0.57
IC50 (MCF-7 cells; MCF-7, growth rate inhibition concentration at GR(c) = 0.5, 24 h, read-out: GR50 (the source's name)): 0.075 µM
IC50 (MCF-10A cells; 24 h drug treatment, read-out: IC50): 0.075 µM
AUC (MCF-10A cells; 24 h): 0.57
GRmax (MCF-10A cells; drug efficacy at highest tested dose (<0 cytotoxic, 0 cytostatic, >0 partial growth inhibition)): −0.40
IC50 (MCF-10A cells; growth rate inhibition concentration at GR(c) = 0.5, 24 h, read-out: GR50 (the source's name)): 0.074 µM
IC50 (HCC38 cells; HCC38, 24 h drug treatment, read-out: IC50): 0.093 µM
AUC (HCC38 cells; HCC38): 0.62
GRmax (HCC38 cells; HCC38): −0.58
IC50 (HCC38 cells; HCC38, growth rate inhibition concentration at GR(c) = 0.5, 24 h, read-out: GR50 (the source's name)): 0.054 µM
IC50 (HCC1806 cells; HCC1806, 24 h drug treatment, read-out: IC50): 0.15 µM
AUC (HCC1806 cells; HCC1806): 0.66
GRmax (HCC1806 cells; HCC1806): −0.38
IC50 (HCC1806 cells; HCC1806, growth rate inhibition concentration at GR(c) = 0.5, 24 h, read-out: GR50 (the source's name)): 0.12 µM
area under the dose response curve (AUC), mean ± SD ([1]; 24 h): 0.68 ± 0.10
cytotoxic effect at the highest dose [1]: cytotoxic

CC1=C(O)C(=O)C=C2C1=CC=C1[C@@]2(C)CC[C@@]2(C)[C@@H]3C[C@](C)(C(=O)O)CC[C@]3(C)CC[C@]12C [Celastrol]
IC50 (MDA-MB-436 cells; Homo sapiens, MDA-MB-436, 24 h): 3.2 µM
IC50 (MDA-MB-436 cells; Homo sapiens, MDA-MB-436, 24 h, read-out: GR50 (µM)): 2.4 µM
AUC (MDA-MB-436 cells; MDA-MB-436): 0.85
GRmax (MDA-MB-436 cells; MDA-MB-436): −0.63
IC50 (MDA-MB-453 cells; Homo sapiens, MDA-MB-453, 24 h): 3.7 µM
IC50 (MDA-MB-453 cells; Homo sapiens, MDA-MB-453, 24 h, read-out: GR50 (µM)): 3.4 µM
AUC (MDA-MB-453 cells; MDA-MB-453): 0.87
AUC (BT-549 cells; BT-549): 0.82
GRmax (BT-549 cells; BT-549): −0.51
IC50 (BT-549 cells; Homo sapiens, BT-549, 24 h): 1.3 µM
IC50 (BT-549 cells; Homo sapiens, BT-549, 24 h, read-out: GR50 (µM)): 1.5 µM
IC50 (MDA-MB-468 cells; Homo sapiens, MDA-MB-468, 24 h): 1 µM
IC50 (MDA-MB-468 cells; Homo sapiens, MDA-MB-468, 24 h, read-out: GR50 (µM)): 0.75 µM
AUC (MDA-MB-468 cells; MDA-MB-468): 0.75
AUC (HCC70 cells; HCC70): 0.82
GRmax (HCC70 cells; HCC70): −0.98
IC50 (HCC70 cells; Homo sapiens, HCC70, 24 h): 1.8 µM
IC50 (HCC70 cells; Homo sapiens, HCC70, 24 h, read-out: GR50 (µM)): 1.2 µM
IC50 (MCF-7 cells; Homo sapiens, MCF7, 24 h): 2.8 µM
IC50 (MCF-7 cells; Homo sapiens, MCF7, 24 h, read-out: GR50 (µM)): 3.3 µM
AUC (MCF-7 cells; MCF-7): 0.89
GRmax (MCF-7 cells; MCF-7): −0.30
IC50 (MCF-10A cells; Homo sapiens, 24 h): 1.6 µM
IC50 (MCF-10A cells; Homo sapiens, 24 h, read-out: GR50 (µM)): 1.8 µM
AUC (MCF-10A cells; 24 h): 0.81
AUC (HCC38 cells; HCC38): 0.79
GRmax (HCC38 cells; HCC38): −0.96
IC50 (HCC38 cells; Homo sapiens, HCC38, 24 h): 1.4 µM
IC50 (HCC38 cells; Homo sapiens, HCC38, 24 h, read-out: GR50 (µM)): 1.2 µM
AUC (HCC1806 cells; HCC1806): 0.81
GRmax (HCC1806 cells; HCC1806): −0.82
IC50 (HCC1806 cells; Homo sapiens, HCC1806, 24 h): 2.1 µM
IC50 (HCC1806 cells; Homo sapiens, HCC1806, 24 h, read-out: GR50 (µM)): 3.4 µM
cytotoxic effect at the highest dose [1]: cytotoxic

CC(C)C[C@H](NC(=O)[C@H](Cc1ccccc1)NC(=O)c1cnccn1)B(O)O [Bortezomib]
IC50 (MDA-MB-436 cells; Homo sapiens, MDA-MB-436, growth rate inhibition concentration at GR(c) = 0.5, 24 h, read-out: GR50 (the source's name)): 0.021 µM
AUC (MDA-MB-436 cells; MDA-MB-436): 0.75
GRmax (MDA-MB-436 cells; MDA-MB-436): −0.76
IC50 (MDA-MB-453 cells; Homo sapiens, MDA-MB-453, growth rate inhibition concentration at GR(c) = 0.5, 24 h, read-out: GR50 (the source's name)): 0.063 µM
AUC (MDA-MB-453 cells; MDA-MB-453): 0.75
AUC (BT-549 cells; BT-549): 0.66
GRmax (BT-549 cells; BT-549): 0.39
IC50 (BT-549 cells; Homo sapiens, BT-549, growth rate inhibition concentration at GR(c) = 0.5, 24 h, read-out: GR50 (the source's name)): 0.1 µM
IC50 (MDA-MB-468 cells; Homo sapiens, MDA-MB-468, 24 h drug treatment, read-out: IC50): 0.054 µM
IC50 (MDA-MB-468 cells; Homo sapiens, MDA-MB-468, growth rate inhibition concentration at GR(c) = 0.5, 24 h, read-out: GR50 (the source's name)): 0.017 µM
AUC (MDA-MB-468 cells; MDA-MB-468): 0.57
AUC (HCC70 cells; HCC70): 0.68
GRmax (HCC70 cells; HCC70): −0.55
IC50 (HCC70 cells; Homo sapiens, HCC70, 24 h drug treatment, read-out: IC50): 0.81 µM
IC50 (HCC70 cells; Homo sapiens, HCC70, growth rate inhibition concentration at GR(c) = 0.5, 24 h, read-out: GR50 (the source's name)): 0.1 µM
IC50 (MCF-7 cells; Homo sapiens, MCF7, MCF-7, growth rate inhibition concentration at GR(c) = 0.5, 24 h, read-out: GR50 (the source's name)): 0.031 µM
AUC (MCF-7 cells; MCF-7): 0.78
GRmax (MCF-7 cells; MCF-7): −0.43
IC50 (MCF-10A cells; Homo sapiens, 24 h drug treatment, read-out: IC50): 0.046 µM
IC50 (MCF-10A cells; Homo sapiens, growth rate inhibition concentration at GR(c) = 0.5, 24 h, read-out: GR50 (the source's name)): 0.012 µM
AUC (MCF-10A cells; 24 h): 0.59
AUC (HCC38 cells; HCC38): 0.40
GRmax (HCC38 cells; HCC38): −0.99
IC50 (HCC38 cells; Homo sapiens, HCC38, 24 h drug treatment, read-out: IC50): 0.024 µM
IC50 (HCC38 cells; Homo sapiens, HCC38, growth rate inhibition concentration at GR(c) = 0.5, 24 h, read-out: GR50 (the source's name)): 0.01 µM
AUC (HCC1806 cells; HCC1806): 0.70
GRmax (HCC1806 cells; HCC1806): 0.33
IC50 (HCC1806 cells; Homo sapiens, HCC1806, 24 h drug treatment, read-out: IC50): 0.79 µM
IC50 (HCC1806 cells; Homo sapiens, HCC1806, growth rate inhibition concentration at GR(c) = 0.5, 24 h, read-out: GR50 (the source's name)): 0.38 µM
IC50 ([1]; Homo sapiens, 24 h, read-out: GR50 (mean ± SD)): 100 ± 110 nM
area under the dose response curve (AUC), mean ± SD ([1]; 24 h): 0.66 ± 0.10
